Data: ChEMBL document CHEMBL3124782, “MHY884, a newly synthesized tyrosinase inhibitor, suppresses UVB-induced activation of NF-κB signaling pathway through the downregulation of oxidative stress” (Bioorg Med Chem Lett, 2014)
The source made the active and inactive calls. No cut-off for these calls is given here.

Key:
Mus musculus [1] = assay: Antioxidant activity in melanin-possessing hairless mouse assessed as inhibition of UVB-induced peroxynitrite generation in skin homogenate compound treated topically to dorsal skin once a day for 21 days concomitantly irradiated with UV-B on alternate days from day 2 post-treatment by DHR 123 assay; format: functional, organism-based
Mus musculus [2] = assay: (§1) Antioxidant activity in UVB-irradiated melanin-possessing hairless mouse assessed as inhibition of AKT-mediated IKKalphabeta phosphorylation at Ser176/180 residues in skin homogenate at 2 to 10 uM treated topically to dorsal skin once a day for 21 days concomitantly irradiated with UV-B on alternate days from day 2 post-treatment by Western blot method; format: functional, organism-based
B16-F10 [3] = assay: Inhibition of oxidative stress in mouse B16F10 cells assessed as SIN-1-induced peroxynitrite generation pretreated for 2 hrs followed by washout before SIN-1 challenge; format: functional, cell-based
B16-F10 [4] = assay: Inhibition of oxidative stress in mouse B16F10 cells assessed as SIN-1-induced ROS generation pretreated for 2 hrs followed by washout before SIN-1 challenge; format: functional, cell-based
Mus musculus [5] = assay: as §1, with “NF-kappaB-mediated iNOS expression” for “AKT-mediated IKKalphabeta phosphorylation at Ser176/180 residues”; format: functional, organism-based
[6] = Antioxidant activity assessed as ROS scavenging activity at 1 to 10 uM by DCFDA assay; format: functional
Mus musculus [7] = assay: as §1, with “NF-kappaB-mediated COX-2 expression” for “AKT-mediated IKKalphabeta phosphorylation at Ser176/180 residues”; format: functional, organism-based
Mus musculus [8] = assay: as §1, with “nuclear translocation of p-p65 NF-kappaB Ser 536” for “AKT-mediated IKKalphabeta phosphorylation at Ser176/180 residues”; format: functional, organism-based
[9] = Antioxidant activity assessed as peroxynitrite scavenging activity at 1 to 10 uM by DHR 123 assay; format: functional
Mus musculus [10] = assay: Antioxidant activity in melanin-possessing hairless mouse assessed as inhibition of UVB-induced ROS generation in skin homogenate compound treated topically to dorsal skin once a day for 21 days concomitantly irradiated with UV-B on alternate days from day 2 post-treatment by DCFDA assay; format: functional, organism-based
Mus musculus [11] = assay: as §1, with “p65 NF-kappaB” for “AKT-mediated IKKalphabeta”, “Ser536 residue” for “Ser176/180 residues”; format: functional, organism-based
Mus musculus [12] = assay: Antioxidant activity in UVB-irradiated melanin-possessing hairless mouse assessed as effect on GSH/GSSG ratio in skin homogenate at 2 to 10 uM treated topically to dorsal skin once a day for 21 days concomitantly irradiated with UV-B on alternate days from day 2 post-treatment by o-phthalaldehyde assay; format: functional, organism-based
Mus musculus [13] = assay: as §1, with “AKT” for “AKT-mediated IKKalphabeta”, “Thr 308 and Ser473” for “Ser176/180”; format: functional, organism-based

| SMILES | inhibition (Mus musculus [1]) | inhibition (Mus musculus [2]) | inhibition (B16-F10 [3]) | inhibition (B16-F10 [4]) | inhibition (Mus musculus [5]) | Activity [6] | inhibition (Mus musculus [7]) | inhibition (Mus musculus [8]) | Activity [9] | inhibition (Mus musculus [10]) | inhibition (Mus musculus [11]) | Activity (Mus musculus [12]) | inhibition (Mus musculus [13]) |
| --- | --- | --- | --- | --- | --- | --- | --- | --- | --- | --- | --- | --- | --- |
| COc1cc(C2Nc3cc(Cl)ccc3S2)cc(OC)c1O (stereo not given) | Dose-dependent effect | Active | Dose-dependent effect | Dose-dependent effect | Active | Active | Active | Active | Active | Dose-dependent effect | Active | inactive | Active |
| CC(C)(S)[C@@H](N)C(=O)O |  |  |  |  |  |  |  |  | Active |  |  |  |  |
| Cc1c(C)c2c(c(C)c1O)CCC(C)(C(=O)O)O2 (stereo not given) |  |  |  |  |  | Active |  |  |  |  |  |  |  |
